PMC2940852 (Biochemical pharmacology, 2010)

How the values were obtained:
[1] = system: dually-perfused human placental lobule; conditions: human placenta; cited from earlier work
[2] = system: dually-perfused human placental lobule; assay: Transplacental transfer, dual perfusion of human placental lobule; assay type: in vitro ADME; conditions: 4 hours perfusion, closed-closed
placental tissue [3] = assay: Metabolism by placental tissue during perfusion; assay type: in vitro ADME, human; conditions: 4 hours of perfusion; maternal and fetal perfusate and placental tissue
placental tissue [4] = assay: Placental viability and functional parameters during perfusion; parameters: species or system human; conditions: OH-bupropion 470 ng/ml, 4 hours, compared with control placentas
BCRP [5] = target: T1, BCRP (Homo sapiens, UniProt Q9UNQ0); conditions: human placenta brush border membrane IOVs
T1 sequence (Q9UNQ0 1-655): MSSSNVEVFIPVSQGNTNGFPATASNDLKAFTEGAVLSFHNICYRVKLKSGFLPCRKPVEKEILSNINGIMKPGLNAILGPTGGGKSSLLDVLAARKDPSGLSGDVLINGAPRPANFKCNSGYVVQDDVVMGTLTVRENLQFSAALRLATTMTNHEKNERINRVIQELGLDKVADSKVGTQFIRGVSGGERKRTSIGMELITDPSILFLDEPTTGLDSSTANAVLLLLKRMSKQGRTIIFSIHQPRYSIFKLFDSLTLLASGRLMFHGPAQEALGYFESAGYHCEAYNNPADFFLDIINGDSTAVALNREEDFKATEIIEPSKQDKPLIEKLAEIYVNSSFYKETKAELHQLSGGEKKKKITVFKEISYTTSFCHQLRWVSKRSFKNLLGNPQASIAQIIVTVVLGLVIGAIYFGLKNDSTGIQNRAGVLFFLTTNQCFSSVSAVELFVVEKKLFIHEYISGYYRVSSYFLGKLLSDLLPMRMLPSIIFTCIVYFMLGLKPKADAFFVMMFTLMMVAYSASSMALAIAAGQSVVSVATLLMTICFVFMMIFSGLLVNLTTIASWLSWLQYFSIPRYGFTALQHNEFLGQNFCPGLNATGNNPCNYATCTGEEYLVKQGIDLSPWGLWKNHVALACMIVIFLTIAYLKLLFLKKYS

P-gp [6] = target: T2, P-gp (Homo sapiens, UniProt P08183); conditions: human placenta brush border membrane IOVs
P-gp [7] = target: T2, P-gp; assay: Stimulation of P-gp ATPase activity; assay type: biochemical; conditions: insect cell membranes transfected with human P-gp
BCRP [8] = target: T1, BCRP; assay: Stimulation of BCRP ATPase activity; assay type: biochemical; conditions: insect cell membranes transfected with human BCRP

T2 sequence (P08183 whole entry): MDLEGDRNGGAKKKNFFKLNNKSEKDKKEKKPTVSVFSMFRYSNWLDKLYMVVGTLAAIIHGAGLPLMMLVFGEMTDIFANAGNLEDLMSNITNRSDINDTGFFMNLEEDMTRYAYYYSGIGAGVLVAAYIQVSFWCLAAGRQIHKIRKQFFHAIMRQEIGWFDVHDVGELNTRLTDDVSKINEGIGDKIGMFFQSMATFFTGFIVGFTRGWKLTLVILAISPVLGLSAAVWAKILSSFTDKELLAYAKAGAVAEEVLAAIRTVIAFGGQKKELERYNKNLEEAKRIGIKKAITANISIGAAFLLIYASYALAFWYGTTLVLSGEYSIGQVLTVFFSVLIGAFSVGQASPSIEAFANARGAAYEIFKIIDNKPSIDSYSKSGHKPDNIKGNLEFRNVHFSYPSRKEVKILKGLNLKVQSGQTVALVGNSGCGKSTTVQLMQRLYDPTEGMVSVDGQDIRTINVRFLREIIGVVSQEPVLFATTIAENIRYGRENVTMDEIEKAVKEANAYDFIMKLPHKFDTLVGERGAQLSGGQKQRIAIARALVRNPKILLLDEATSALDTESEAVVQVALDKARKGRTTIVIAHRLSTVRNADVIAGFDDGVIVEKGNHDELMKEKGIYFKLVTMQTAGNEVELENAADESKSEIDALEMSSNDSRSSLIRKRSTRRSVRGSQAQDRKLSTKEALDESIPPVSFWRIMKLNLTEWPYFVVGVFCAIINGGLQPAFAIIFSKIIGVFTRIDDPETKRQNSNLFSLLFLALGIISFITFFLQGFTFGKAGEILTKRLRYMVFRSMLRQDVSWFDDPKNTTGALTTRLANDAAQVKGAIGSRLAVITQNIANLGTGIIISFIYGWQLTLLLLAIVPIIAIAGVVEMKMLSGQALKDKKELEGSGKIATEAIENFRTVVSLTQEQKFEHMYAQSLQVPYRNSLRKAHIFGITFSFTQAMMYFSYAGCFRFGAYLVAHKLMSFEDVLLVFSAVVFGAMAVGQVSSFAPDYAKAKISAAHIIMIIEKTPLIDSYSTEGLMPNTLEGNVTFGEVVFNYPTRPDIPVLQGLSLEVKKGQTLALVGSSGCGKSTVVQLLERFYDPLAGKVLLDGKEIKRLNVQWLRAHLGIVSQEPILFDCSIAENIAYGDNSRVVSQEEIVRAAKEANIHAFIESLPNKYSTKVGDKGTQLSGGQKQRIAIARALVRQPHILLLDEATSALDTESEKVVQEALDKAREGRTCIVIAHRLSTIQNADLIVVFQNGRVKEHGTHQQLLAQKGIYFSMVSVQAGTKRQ

CN1CCC[C@H]1c1cccnc1 [nicotine]
Placental transfer (freely-diffusible compounds) [1]: 30–40%

C[C@H]1NC(C)(C)CO[C@]1(O)c1cccc(Cl)c1 [OH-bupropion, hydroxybupropion]
Fetal circuit concentration as % of initial concentration in maternal circuit [2]: 32 ± 3% | Concentration in the fetal circuit at the end of the experimental period ([2]; initial maternal concentration 470 ± 17 ng/ml): 151 ± 13 ng/mL | Biotransformation by placental enzymes during perfusion (placental tissue [3]): without undergoing biotransformation | Placental viability and functional parameters during perfusion (placental tissue [4]): unchanged | Transported substrate of BCRP (BCRP [5]): not a transported substrate | Transported substrate of P-gp (P-gp [6]): not a transported substrate

CC(NC(C)(C)C)C(=O)c1cccc(Cl)c1 (stereo not shown) [bupropion]
Vmax of stimulation of ATPase activity by P-gp (P-gp [7]): 9.5 ± 1.6 nmoles Pi/mg protein*min | Vmax of stimulation of ATPase activity by BCRP (BCRP [8]): 6 ± 0.8 nmoles Pi/mg protein*min

Cc1cc(=O)n(-c2ccccc2)n1C [antipyrine]
Placental transfer (freely-diffusible compounds) [1]: 30–40%
